The target in one series is Bcr/Abl fusion protein (Homo sapiens, UniProt P00519, T315I). Type of series: protein assay.
Series [1] can be described thus: Antiproliferative activity against mouse BA/F3 cells expressing wild type Bcr-Abl after 72 hrs by CCK-8 assay. Format: functional, cell-based. Particulars: BaF3, 72 h. Background: Tetrazolium dyes change colour on reduction, which living cells bring about.
In series [2] the test system is Tyrosine-protein kinase ABL1 (Mus musculus), P00520 [T315I]. Briefly: Inhibition of Bcr-Abl T315I mutant in mouse BA/F3 cells assessed as reduction of CRKL phosphorylation at 4 to 500 nM after 4 hrs by Western blot analysis. Format: cell-based. Particulars: BaF3. In general terms: In western blotting, separated proteins are transferred to a membrane and probed.
For series [3] the test system is unchanged. Briefly: Inhibition of Bcr-Abl T315I mutant in mouse BA/F3 cells assessed as total protein level of Bcr-Abl at 4 to 500 nM after 4 hrs by Western blot analysis. Type of series: cell-based. Particulars: BaF3.
The test system is the same in series [4]. Briefly: Inhibition of Bcr-Abl T315I mutant in mouse BA/F3 cells assessed as total protein level of CRKL at 4 to 500 nM after 4 hrs by Western blot analysis. Particulars: BaF3. Type of series: cell-based.
Series [5] has as its system K562. Briefly: Induction of apoptosis in human K562 cells expressing wild type Bcr-Abl assessed as late apoptotic cells at 4 nM after 24 hrs using annexin-V/7-AAD staining by FACS analysis (reference value: 2.1%). Format: functional. On the technique in general: Flow cytometry measures light scatter and fluorescence of single cells or particles in a stream.
In series [6] the test system is K562. Briefly: Induction of apoptosis in human K562 cells expressing wild type Bcr-Abl assessed as late apoptotic cells at 20 nM after 24 hrs using annexin-V/7-AAD staining by FACS analysis (reference value: 2.1%). Type of series: functional.
Series [7] deals with K562. Briefly: Induction of apoptosis in human K562 cells expressing wild type Bcr-Abl assessed as early apoptotic cells at 100 nM after 24 hrs using annexin-V/7-AAD staining by FACS analysis (reference value: 7.3%). Format: functional.
Series [8] can be described thus: Cell cycle arrest in mouse BA/F3 cells expressing Bcr-Abl T315I mutant assessed as accumulation at G0/G1 phase at 20 nM after 24 hrs using propidium iodide staining by flow cytometry (reference value: 51.92%). Type of series: functional, cell-based. Particulars: BaF3.
Series [9] is described as follows: Cell cycle arrest in mouse BA/F3 cells expressing Bcr-Abl T315I mutant assessed as accumulation at G0/G1 phase at 500 nM after 24 hrs using propidium iodide staining by flow cytometry (reference value: 51.92%). Format: functional, cell-based. Particulars: BaF3.
Series [10] deals with BaF3. Briefly: Induction of apoptosis in mouse BA/F3 cells expressing Bcr-Abl T315I mutant assessed as early apoptotic cells at 4 nM after 24 hrs using annexin-V/7-AAD staining by FACS analysis (reference value: 4.6%). Type of series: functional.
Series [11] relates to BaF3. Briefly: Induction of apoptosis in mouse BA/F3 cells expressing Bcr-Abl T315I mutant assessed as late apoptotic cells at 500 nM after 24 hrs using annexin-V/7-AAD staining by FACS analysis (reference value: 2.2%). Format: functional.
Series [12] deals with K562. Briefly: Induction of apoptosis in human K562 cells expressing wild type Bcr-Abl assessed as early apoptotic cells after 24 hrs using annexin-V/7-AAD staining by FACS analysis. Format: functional, cell-based.
The test system of series [13] is BaF3. Briefly: Induction of apoptosis in mouse BA/F3 cells expressing Bcr-Abl T315I mutant assessed as late apoptotic cells after 24 hrs using annexin-V/7-AAD staining by FACS analysis. Format: functional, cell-based.
A further series relates to Rattus norvegicus. Briefly: AUC (0 to infinity) in Sprague-Dawley rat at 25 mg/kg, po. Format: ADME, organism-based. Also on record: dose 25 mg/kg, time infinity, route oral. Particulars: in vivo.
Series [14] deals with K562. Briefly: Antitumor activity against human K562 cells expressing wild type Bcr-Abl xenografted in mouse assessed as complete eradication of tumor at 10 mg/kg, po qd for 8 days. Format: functional, organism-based.
In series [15] the test system is BaF3. Briefly: Antitumor activity against mouse BA/F3 cells expressing Bcr-Abl T315I mutant allografted in po dosed mouse assessed as tumor growth inhibition administered qd for 16 days. Type of series: functional, organism-based.
Series [16] deals with BaF3. Briefly: Antitumor activity against mouse BA/F3 cells expressing Bcr-Abl T315I mutant allografted in mouse assessed as tumor regression at 30 mg/kg, qd for 16 days. Format: functional, organism-based.
Series [17] concerns K562. Briefly: cells. Particulars: Homo sapiens, K562, 72 h.
Description: Antiproliferative activity against human K562 cells expressing wild type Bcr-Abl after 72 hrs by CCK-8 assay

The source made the active and inactive calls. The calls are words filed in the database; no cut-off is given here.

Chain of Tyrosine-protein kinase ABL1 (Mus musculus), P00520 [T315I] (P00520 whole entry T315I): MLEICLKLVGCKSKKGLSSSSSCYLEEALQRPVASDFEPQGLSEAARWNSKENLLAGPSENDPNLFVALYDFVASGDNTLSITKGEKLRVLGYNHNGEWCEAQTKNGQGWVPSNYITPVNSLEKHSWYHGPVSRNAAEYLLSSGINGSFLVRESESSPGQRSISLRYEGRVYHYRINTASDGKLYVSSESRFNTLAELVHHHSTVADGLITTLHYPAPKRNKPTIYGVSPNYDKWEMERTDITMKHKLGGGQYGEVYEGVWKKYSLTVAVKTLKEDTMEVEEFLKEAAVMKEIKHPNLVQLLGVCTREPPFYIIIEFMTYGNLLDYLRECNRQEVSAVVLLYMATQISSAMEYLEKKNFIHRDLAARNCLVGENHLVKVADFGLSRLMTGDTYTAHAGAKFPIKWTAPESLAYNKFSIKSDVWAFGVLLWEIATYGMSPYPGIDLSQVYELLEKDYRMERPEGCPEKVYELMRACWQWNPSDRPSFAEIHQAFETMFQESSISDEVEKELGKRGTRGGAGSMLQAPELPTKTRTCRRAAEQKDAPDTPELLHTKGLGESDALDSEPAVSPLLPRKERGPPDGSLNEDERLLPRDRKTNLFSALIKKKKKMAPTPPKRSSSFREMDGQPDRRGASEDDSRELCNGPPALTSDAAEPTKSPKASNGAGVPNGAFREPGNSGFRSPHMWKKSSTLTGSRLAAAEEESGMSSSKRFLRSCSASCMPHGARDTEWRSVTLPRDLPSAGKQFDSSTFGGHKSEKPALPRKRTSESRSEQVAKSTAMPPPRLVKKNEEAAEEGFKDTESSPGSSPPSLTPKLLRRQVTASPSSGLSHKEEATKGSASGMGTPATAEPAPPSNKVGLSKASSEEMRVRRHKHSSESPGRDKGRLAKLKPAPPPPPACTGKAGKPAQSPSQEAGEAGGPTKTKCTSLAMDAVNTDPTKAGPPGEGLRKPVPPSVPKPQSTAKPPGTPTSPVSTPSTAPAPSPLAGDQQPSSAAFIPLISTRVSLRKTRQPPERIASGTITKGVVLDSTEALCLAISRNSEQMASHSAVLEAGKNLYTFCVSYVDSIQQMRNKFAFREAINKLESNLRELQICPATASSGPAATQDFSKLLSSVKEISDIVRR

Consider `Cc1cn(-c2cc(NC(=O)c3ccc(C)c(C#Cc4cnc(NC5CC5)nc4)c3)cc(C(F)(F)F)c2)cn1`, for which the IC50 is 9 nM on Bcr/Abl fusion protein, 2 nM in [1] and 2 nM in the series on K562 [17]. In [2], the inhibition entry is “Active”. Besides, the inhibition entry in series [3] and in series [4] was “inactive” throughout. For the same compound, the Activity in the series on K562 [5] was determined as 2%; in the series with K562 [6] it was 2.5%; with K562 [7] it was 73.6%; in series [8] it was 58.9%; in series [9], 70.2%; with BaF3 [10] it was 5.8%. Further, the Activity in the series with BaF3 [11] was 4.3%; in the series with K562 [12], “Dose-dependent effect”; with BaF3 [13], “Dose-dependent effect”. For the same compound, the AUC in the series on Rattus norvegicus amounted to 251684 µg/L/h. Also, the result in the series on K562 [14] and with BaF3 [16] was Active. In the series with BaF3 [15], the “growth inhibition (GI)” value was “Dose-dependent effect”.

Broadly, the IC50 is the midpoint of a concentration-inhibition curve. High values mean lower potency, low ones higher potency.

The record behind these values is ChEMBL document CHEMBL3603836, “Hybrid pyrimidine alkynyls inhibit the clinically resistance related Bcr-Abl(T315I) mutant” (Bioorg Med Chem Lett, 2015).
